Earlier results, collected in PubChem BioAssay AID1259410 (Chemical Carcinogenesis Research Information System (CCRIS), 2018).
Square brackets hold non-standard residues; d marks the D form. Peptide text beside a SMILES is read from it. sY = N[C@@H](Cc1ccc(OS(=O)(=O)O)cc1)C(=O)O; pGlu = O=C1CC[C@@H](C(=O)O)N1

Tested on: rodent tumor promotion studies, tumor incidence
Assay: CCRIS tumor promotion studies
[1] = Carcinogen: 7,12-DIMETHYLBENZ(A)ANTHRACENE, Doses [Carcinogen]: TOP, Route [Carcinogen]: DERMAL, Route [Promoter]: DERMAL, Species: MOUSE, Strain/Sex: FEMALE

For `CSCC[C@H](NC(=O)[C@H](Cc1c[nH]c2ccccc12)NC(=O)CNC(=O)[C@@H](NC(=O)[C@H](Cc1ccc(OS(=O)(=O)O)cc1)NC(=O)[C@H](CC(=O)O)NC(=O)[C@H](CCC(N)=O)NC(=O)[C@@H]1CCC(=O)N1)[C@@H](C)O)C(=O)N[C@@H](CC(=O)O)C(=O)N[C@@H](Cc1ccccc1)C(N)=O` ([pGlu]QD[sY]TGWMDF-NH2), the outcome (Carcinogen: 7,12-DIMETHYLBENZ[A]ANTHRACENE, 57-97-6, Doses [Carcinogen]: 2-3 MG ONCE, Doses [Promoter]: 0, 5 UG/KG 2/D FOR 15 D POST CARCINOGEN TREATMENT (STUDY DURATION: 6 MO), Route [Carcinogen]: PANCREATIC IMPLANT, Route [Promoter]: SUBCUTANEOUS, Species: RAT, Strain/Sex: SPRAGUE-DAWLEY/MALE) is listed as “pancreas: carcinoma”, the outcome (Carcinogen: N-METHYL-N'-NITRO-N-NITROSOGUANIDINE, 70-25-7, Doses [Carcinogen]: 50 UG/ML IN DRINKING WATER FOR 20 WK, Doses [Promoter]: 0, 10 UG/KG IN OLIVE OIL 1/2 D FOR 20 WK BEGINNING 3 D AFTER CARCINOGEN DOSE (STUDY DURATION: 52 WK), Route [Carcinogen]: ORAL, Route [Promoter]: SUBCUTANEOUS, Species: RAT, Strain/Sex: WISTAR/MALE) is listed as “glandular stomach: adenocarcinoma” and the outcome (Carcinogen: N-METHYL-N'-NITRO-N-NITROSOGUANIDINE, 70-25-7, Doses [Carcinogen]: 50 UG/ML IN DRINKING WATER FOR 25 WK, Doses [Promoter]: 2 UG/KG IN OLIVE OIL 1/2 D FOR 27 WK ADMINISTERED POST CARCINOGEN DOSE (STUDY DURATION: 52 WK), Route [Carcinogen]: ORAL, Route [Promoter]: SUBCUTANEOUS, Species: RAT, Strain/Sex: WISTAR/MALE) is listed as “stomach: adenocarcinoma”.
In the case of `CSCC[C@H](NC(=O)[C@H](Cc1ccccc1)NC(=O)CNC(=O)CNC(=O)[C@@H](N)Cc1ccc(O)cc1)C(=O)O`, the outcome (Carcinogen: AZOXYMETHANE, 25843-45-2, Doses [Carcinogen]: 7.4 MG/KG IN 0.9% SALINE 1/WK FOR 10 WK, Doses [Promoter]: 0, 50 UG/KG IN OLIVE OIL 1/2 D BEGINNING AT THE START OF CARCINOGEN TREATMENT AND CONTINUING FOR DURATION OF STUDY (STUD, Route [Carcinogen]: SUBCUTANEOUS, Route [Promoter]: SUBCUTANEOUS, Species: RAT, Strain/Sex: WISTAR/MALE) is given as “colon: tumor” and the outcome (Carcinogen: N-METHYL-N'-NITRO-N-NITROSOGUANIDINE, 70-25-7, Doses [Carcinogen]: 25 UG/ML IN DRINKING WATER FOR 25 WK, Doses [Promoter]: 0, 20 UG/KG 1/2 D BEGINNING POST CARCINOGEN TREATMENT AND CONTINUING FOR THE DURATION OF STUDY (STUDY DURATION: 52 WK), Route [Carcinogen]: ORAL, Route [Promoter]: SUBCUTANEOUS, Species: RAT, Strain/Sex: WISTAR/MALE) is given as “stomach: adenocarcinoma”.
For `C[C@@]12C(=O)OC(=O)[C@]1(C)[C@H]1CC[C@@H]2O1`, the outcome [1] is given as “integumentary system (skin)”.
In the case of `Cc1cccc(C)c1N`, the outcome (Carcinogen: N-BIS(2-HYDROXYPROPYL)NITROSAMINE) [53609-64-6], Doses [Carcinogen]: 2400 MG/KG BW ONCE (STUDY DURATION: 53 WK), Doses [Promoter]: 3000 PPM IN DIET FOR 52 WK BEGINNING 1 WK POST LAST CARCINOGEN DOSE (STUDY DURATION: 53 WK), Route [Carcinogen]: SUBCUTANEOUS, Route [Promoter]: ORAL, Species: RAT, Strain/Sex: F344/MALE) is listed as “nasal cavity: carcinoma”.
In the case of `CC1=C[C@H]2[C@@]3(O)[C@H](C)[C@@H](OC(=O)c4ccccc4)[C@]4(OC(=O)c5ccccc5)[C@H]([C@@H]3C=C(CO)C[C@]2(O)C1=O)C4(C)C`, the outcome (Carcinogen: 7,12-DIMETHYLBENZ(A)ANTHRACENE, Doses [Carcinogen]: TOP, Route [Carcinogen]: DERMAL, Route [Promoter]: DERMAL, Species: MOUSE, Strain/Sex: MALE,FEMALE) is given as “integumentary system (skin)”.
In the case of `CC(=O)OC/C=C(C)/C=C/C=C(C)/C=C/C1=C(C)CCCC1(C)C`, the outcome (Carcinogen: 3'-METHYL-4-DIMETHYLAMINOAZOBENZENE, 55-80-1, Doses [Carcinogen]: 0.06% IN DIET FOR 7 WK, Doses [Promoter]: 0, 6.25, 12.5, 25 MG 1/5 D FOR 10 WK ADMINISTERED 3 WK POST CARCINOGEN (STUDY DURATION: 25 WK), Doses [Promoter]: 0, 6.25, 12.5, 25 MG 1/5 D FOR 10 WK ADMINISTERED 3 WK POST CARCINOGEN (STUDY DURATION: 25 WK), Route [Carcinogen]: ORAL, Route [Promoter]: INTRAPERITONEAL, Species: RAT, Strain/Sex: DONRYU/MALE) is given as “liver: hepatocellular carcinoma”.
In the case of `C=C1[C@@H](O)[C@@H]2O[C@]3(CC[C@H](/C=C/[C@@H](C)[C@@H]4CC(C)=C[C@@]5(O[C@H](C[C@@](C)(O)C(=O)O)CCC5O)O4)O3)CC[C@H]2O[C@@H]1[C@@H](O)C[C@H](C)[C@H]1O[C@@]2(CCCCO2)CC[C@H]1C` (some centres not stated), the outcome (Carcinogen: 7,12-DIMETHYLBENZ[A]ANTHRACENE, 57-97-6, Doses [Carcinogen]: 100 UG IN 0.1 ML OF ACETONE ONCE, Doses [Promoter]: 0, 5 UG IN 0.1 ML OF ACETONE 2/WK FOR 30 WK BEGINNING 1 WK POST CARCINOGEN DOSE (STUDY DURATION: 31 WK), Route [Carcinogen]: DERMAL, Route [Promoter]: DERMAL, Species: MOUSE, Strain/Sex: CD-1/FEMALE) is listed as “skin: tumor” and the outcome (Carcinogen: N-METHYL-N'-NITRO-N-NITROSOGUANIDINE, 70-25-7, Doses [Carcinogen]: 100 MG/L OF DEIONIZED WATER AS DRINKING WATER FOR 8 WK, Doses [Promoter]: 0.25 MG/L IN DRINKING WATER BEGINNING 1 WK POST CARCINOGEN TREATMENT AND CONTINUING FOR 46 WK THEN 0.5 MG/L FOR 17 WK (S, Route [Carcinogen]: ORAL, Route [Promoter]: ORAL, Species: RAT, Strain/Sex: SPRAGUE-DAWLEY/MALE) is listed as “glandular stomach: neoplasms”.
In the case of `Cc1ccc(O)cc1C`, the outcome [1] is given as “integumentary system (skin)”.
In the case of `CC/C(=C(/CC)c1ccc(O)cc1)c1ccc(O)cc1`, the outcome (Carcinogen: IRRADIATION, Doses [Carcinogen]: 260 CGY GAMMA RAYS AT DAY 20 OF PREGNANCY, Doses [Promoter]: 0, 0.376 UG/D RELEASED FROM PELLET IMPLANTED AFTER NURSING DISCONTINUED, PELLET REPLACED EVERY 8 WK (STUDY DURATION: 1 Y, Route [Carcinogen]: DERMAL, Route [Promoter]: IMPLANT, Species: RAT, Strain/Sex: WISTAR/FEMALE) is listed as “mammary gland: tumor”, the outcome (Carcinogen: Sodium arsenite, 7781-46-5, Doses [Carcinogen]: 0, 85 ppm to dams on gestational days 8-18, Doses [Promoter]: 2 ug on days 1, 2, 3, 4, and 5 of life, study duration for pups 90 wks, Route [Carcinogen]: Drinking water, days 8-18 of gestation (dams), Route [Promoter]: Subcutaneous (to offspring), Species: Mouse, Strain/Sex: C3H/HeNCr, (25 Male and female offspring/Group of dams exposed to sodium arsenite)) is listed as “males: urinary bladder: tumors, liver: tumors females: urogenital tumors” and the outcome (Carcinogen: URETHANE, 51-79-6, Doses [Carcinogen]: 500 MG/KG BW ONCE (STUDY DURATION: 19 WK), Doses [Promoter]: 5 MG/KG BW 1X/WK FOR 18 WK BEGINNING 1 WK POST LAST CARCINOGEN DOSE (STUDY DURATION: 19 WK), Route [Carcinogen]: INTRAPERITONEAL, Route [Promoter]: INTRAMUSCULAR, Species: MOUSE, Strain/Sex: KUNMING/FEMALE) is listed as “liver: tumor”.
In the case of `CC(=O)Oc1ccccc1C(=O)O`, the outcome (Carcinogen: N-(4-(5-NITRO-2-FURYL)-2-THIAZOLYL)FORMAMIDE, 24554-26-5, Doses [Carcinogen]: 0.2% IN DIET FOR 12 WK (TOTAL DOSE: 2.7 G), Doses [Promoter]: 0.5% IN DIET (TOTAL DOSE: 45.9 G) BEGINNING 2 D PRIOR TO SIMULTANEOUS ADMINISTRATION WITH CARCINOGEN FOR 12 WK THEN CONT, Route [Carcinogen]: ORAL, Route [Promoter]: ORAL, Species: RAT, Strain/Sex: F344/MALE) is listed as “urinary bladder: transitional cell carcinoma” and the outcome (Carcinogen: N-(4-(5-NITRO-2-FURYL)-2-THIAZOLYL)FORMAMIDE, 24554-26-5, Doses [Carcinogen]: 0.2% IN DIET FOR 12 WK (TOTAL DOSE: 3 G), Doses [Promoter]: 0.5% IN DIET (TOTAL DOSE: 39.9 G) BEGINNING 7 D POST LAST CARCINOGEN DOSE AND CONTINUING FOR DURATION OF STUDY (STUDY DU, Route [Carcinogen]: ORAL, Route [Promoter]: ORAL, Species: RAT, Strain/Sex: F344/MALE) is listed as “urinary bladder: transitional cell carcinoma”.
For `CC(C)(c1ccc(O)cc1)c1ccc(O)cc1`, the outcome (Carcinogen: 7,120Dimethylbenzanthracene (57-97-6), Doses [Carcinogen]: 30 mg/kg bw once to female offspring at 50 days of age, Doses [Promoter]: 0, 25, 250 ug/kg daily for 18 d from d 2 to d 20 postpartum to dams, Doses [Promoter]: 0, 25, 250 ug/kg daily for 18 d from d 2 to d 20 postpartum to dams, Route [Carcinogen]: Intragastric gavage, Route [Promoter]: Intragastric gavage, Species: Rat, Strain/Sex: Sprague Dawley CD/Female) is listed as “breast tumors: incidence increased in offspring of 250 ug/kg dams; latent period”.
For `CC(=O)OO`, the outcome [1] is listed as “integumentary system (skin)”.
In the case of `Cn1cnc([N+](=O)[O-])c1S`, the outcome (Carcinogen: UV IRRADIATION, Doses [Carcinogen]: 0.53 J/CM2 INCREASED BY 20% EVERY 2 WK TO 1.60 J/CM2 AND MAINTAINED AT 1.60 J/CM2 UNTIL DEATH, ADMINISTERED 5 D/WK FOR 1, Doses [Promoter]: 0, 15 UG/G BEGINNING 2 WK POST FIRST CARCINOGEN DOSE ADMINISTERED 2 HR PRIOR TO EACH CARCINOGEN DOSE (STUDY DURATION: 30, Route [Carcinogen]: DERMAL, Route [Promoter]: INTRAPERITONEAL, Species: MOUSE, Strain/Sex: SKH/HRL/FEMALE) is given as “skin: tumor”.
In the case of `C[C@H](CCC(=O)O)[C@H]1CC[C@H]2[C@@H]3CC[C@@H]4C[C@H](O)CC[C@]4(C)[C@H]3CC[C@]12C`, the outcome (Carcinogen: 3-METHYLCHOLANTHRENE, 56-49-5, Doses [Carcinogen]: 3 MG IN BEESWAX PELLET, Doses [Promoter]: 0, 3 MG IN BEESWAX PELLET (STUDY DURATION: 5 MO), Route [Carcinogen]: IMPLANT, Route [Promoter]: IMPLANT, Species: HAMSTER) is listed as “gallbladder: tumor” and the outcome (Doses [Carcinogen]: IR, Route [Carcinogen]: RECTAL, Route [Promoter]: RECTAL, Species: RAT, Strain/Sex: MALE,FEMALE) is listed as “colon”.
